In paper PMC12250302, “Synthesis, Antimicrobial Activities, and Model of Action of Novel Tetralone Derivatives Containing Aminoguanidinium Moiety” (International Journal of Molecular Sciences, 2025):
Values after ≈ are worked out from the molar mass of the structure shown.

Tests used:
Experiment in all cases: MIC and MBC testing, broth microdilution
[1] = system: E. faecium ATCC 35667; assay type: cell-based, Enterococcus faecium; conditions: Enterococcus faecium, ATCC35667, E. faecium ATCC 35667; for MIC: 18 h, read-out: MIC; for MBC: read-out: MBC
Text: (§1) The minimum inhibitory concentrations (MICs) and minimum bactericidal concentrations (MBCs) of the synthesized compounds effective against ESKAPE strains, S. aureus clinical isolates, and MRSA were investigated by the broth dilution method. Levofloxacin is a broad-spectrum antibacterial agent that is widely used in the treatment of ESKAPE infections. Therefore, levofloxacin was selected as the positive control for the preliminary activity screening. DMSO (0.1%) was selected as the negative control.
(§2) The minimum inhibitory concentration (MIC) of all synthesized compounds was tested by the broth microdilution method. In brief, compounds dissolved in DMSO were diluted twice continuously in a 96-well plate with MH broth. The ESKAPE pathogens (E. coli ATCC 25922, S. aureus ATCC 29213, K. pneumoniae ATCC 700603, A. baumannii ATCC 19606, P. aeruginosa ATCC 27853, and E. faecium ATCC 35667), clinical S. aureus isolates (LMY45, LMY46, LMY47, and LMY48) and methicillin-resistant Staphylococcus aureus (MRSA-1 and MRSA-2) were cultured in MH broth to logarithmic growth phase and then diluted to 1 × 10^6 CFU/mL in MH broth. Subsequently, the diluted bacterial solution was mixed with the diluted compound solution in a 96-well plate and incubated at 37 °C for a duration of 18 h. The MIC of the compounds was recorded as the lowest concentration at which no visible growth was observed. […] Each concentration was replicated thrice.

[2] = system: S. aureus ATCC 29213; assay type: cell-based, Staphylococcus aureus; conditions: Staphylococcus aureus, ATCC29213, S. aureus ATCC 29213; for MIC: 18 h, read-out: MIC; for MBC: read-out: MBC
Text: as §1, §2

[3] = system: K. pneumoniae ATCC 700603; assay type: cell-based, Klebsiella pneumoniae; conditions: Klebsiella pneumoniae; for MIC: ATCC700603, 18 h, read-out: MIC; for MBC: ATCC700603, read-out: MBC
Text: as §1, §2

[4] = system: A. baumannii ATCC 19606; assay type: cell-based, Acinetobacter baumannii; conditions: Acinetobacter baumannii; for MIC: ATCC19606, 18 h, read-out: MIC; for MBC: ATCC19606, read-out: MBC
Text: as §1, §2

[5] = system: P. aeruginosa ATCC 27853; assay type: cell-based, Pseudomonas aeruginosa; conditions: Pseudomonas aeruginosa; for MIC: ATCC27853, 18 h, read-out: MIC
Text: as §1, §2

[6] = system: E. coli ATCC 25922; assay type: cell-based, Escherichia coli; conditions: Escherichia coli; for MIC: ATCC25922, 18 h, read-out: MIC; for MBC: ATCC25922, read-out: MBC
Text: as §1, §2

[7] = system: MRSA-1; assay type: cell-based, Staphylococcus aureus; conditions: Staphylococcus aureus, MRSA-1; for MIC: 18 h, read-out: MIC; for MBC: read-out: MBC
Description: (§3) Furthermore, the MBC values of the compounds were detected.
as §2, with “h.” for “h. The MIC of the compounds was recorded as the lowest concentration at which no visible growth was observed.”

[8] = system: MRSA-2; assay type: cell-based, Staphylococcus aureus; conditions: Staphylococcus aureus, MRSA-2; for MIC: 18 h, read-out: MIC; for MBC: read-out: MBC
Description: as §3
as §2, with “h.” for “h. The MIC of the compounds was recorded as the lowest concentration at which no visible growth was observed.”

[9] = system: clinical S. aureus isolate LMY45; assay type: cell-based, Staphylococcus aureus; conditions: Staphylococcus aureus, LMY45; for MIC: 18 h, read-out: MIC; for MBC: read-out: MBC
Description: as §3
as §2, with “h.” for “h. The MIC of the compounds was recorded as the lowest concentration at which no visible growth was observed.”

[10] = system: clinical S. aureus isolate LMY46; assay type: cell-based, Staphylococcus aureus; conditions: Staphylococcus aureus, LMY46; for MIC: 18 h, read-out: MIC; for MBC: read-out: MBC
Description: as §3
as §2, with “h.” for “h. The MIC of the compounds was recorded as the lowest concentration at which no visible growth was observed.”

[11] = system: clinical S. aureus isolate LMY47; assay type: cell-based, Staphylococcus aureus; conditions: Staphylococcus aureus, LMY47; for MIC: 18 h, read-out: MIC; for MBC: read-out: MBC
Description: as §3
as §2, with “h.” for “h. The MIC of the compounds was recorded as the lowest concentration at which no visible growth was observed.”

[12] = system: clinical S. aureus isolate LMY48; assay type: cell-based, Staphylococcus aureus; conditions: Staphylococcus aureus, LMY48; for MIC: 18 h, read-out: MIC; for MBC: read-out: MBC
Description: as §3
as §2, with “h.” for “h. The MIC of the compounds was recorded as the lowest concentration at which no visible growth was observed.”

Structure (SMILES)	MIC [1]	MBC [1]	MIC [2]	MBC [2]	MIC [3]	MIC [4]	MBC [4]	MIC [5]	MIC [6]	MIC [7]	MIC [8]	MBC [8]	MIC [9]	MBC [9]	MIC [10]	MBC [10]	MIC [11]	MBC [11]	MIC [12]	MBC [12]	other results
[H]/N=C(\N)NN=C1CCCc2cc(OCc3ccc(C(F)(F)F)cc3)ccc21 [Compound 1J, (E)-2-(6-((4-(trifluoromethyl)benzyl)oxy)-3,4-dihydronaphthalen-1(2H)-ylidene)hydrazine-1-carboximidamide]	2 µg/mL (≈ 5.31 µM)	4 µg/mL (≈ 10.6 µM)	2 µg/mL (≈ 5.31 µM)	16 µg/mL (≈ 42.5 µM)	16 µg/mL (≈ 42.5 µM)	8 µg/mL (≈ 21.3 µM)	8 µg/mL (≈ 21.3 µM)	16 µg/mL (≈ 42.5 µM)	4 µg/mL (≈ 10.6 µM)	1 µg/mL (≈ 2.66 µM)	2 µg/mL (≈ 5.31 µM)	32 µg/mL (≈ 85 µM)	2 µg/mL (≈ 5.31 µM)	2 µg/mL (≈ 5.31 µM)	2 µg/mL (≈ 5.31 µM)	16 µg/mL (≈ 42.5 µM)	2 µg/mL (≈ 5.31 µM)	4 µg/mL (≈ 10.6 µM)	2 µg/mL (≈ 5.31 µM)	2 µg/mL (≈ 5.31 µM)	MBC [3]: 32 µg/mL (≈ 85 µM); MBC ([5]; ATCC27853, read-out: MBC): > 32 µg/mL; MBC [6]: 4 µg/mL (≈ 10.6 µM); MBC [7]: 8 µg/mL (≈ 21.3 µM)
[H]/N=C(\N)NN=C1CCCc2cc(OCc3cc(C(F)(F)F)cc(C(F)(F)F)c3)ccc21 [Compound 1K, (E)-2-(6-((3,5-bis(trifluoromethyl)benzyl)oxy)-3,4-dihydronaphthalen-1(2H)-ylidene)hydrazine-1-carboximidamide]	4 µg/mL (≈ 9 µM)	16 µg/mL (≈ 36 µM)	32 µg/mL (≈ 72 µM)		> 32 µg/mL	> 32 µg/mL		> 32 µg/mL	> 32 µg/mL	16 µg/mL (≈ 36 µM)	8 µg/mL (≈ 18 µM)	32 µg/mL (≈ 72 µM)	4 µg/mL (≈ 9 µM)	16 µg/mL (≈ 36 µM)	4 µg/mL (≈ 9 µM)	> 32 µg/mL	4 µg/mL (≈ 9 µM)	8 µg/mL (≈ 18 µM)	4 µg/mL (≈ 9 µM)	8 µg/mL (≈ 18 µM)	
[H]/N=C(\N)NN=C1CCCc2cc(OCc3ccccc3Br)ccc21 [Compound 1Q, (E)-2-(6-((2-bromobenzyl)oxy)-3,4-dihydronaphthalen-1(2H)-ylidene)hydrazine-1-carboximidamide]	2 µg/mL (≈ 5.16 µM)	8 µg/mL (≈ 20.7 µM)	4 µg/mL (≈ 10.3 µM)	8 µg/mL (≈ 20.7 µM)	32 µg/mL (≈ 82.6 µM)	8 µg/mL (≈ 20.7 µM)	8 µg/mL (≈ 20.7 µM)	> 32 µg/mL	4 µg/mL (≈ 10.3 µM)	1 µg/mL (≈ 2.58 µM)	2 µg/mL (≈ 5.16 µM)	8 µg/mL (≈ 20.7 µM)	2 µg/mL (≈ 5.16 µM)	4 µg/mL (≈ 10.3 µM)	2 µg/mL (≈ 5.16 µM)	4 µg/mL (≈ 10.3 µM)	≤ 1 µg/mL	4 µg/mL (≈ 10.3 µM)	2 µg/mL (≈ 5.16 µM)	2 µg/mL (≈ 5.16 µM)	MBC [3]: 32 µg/mL (≈ 82.6 µM); MBC [6]: 4 µg/mL (≈ 10.3 µM); MBC [7]: 8 µg/mL (≈ 20.7 µM)
[H]/N=C(\N)NN=C1CCCc2cc(OCc3cccc(Br)c3)ccc21 [Compound 1R, (E)-2-(6-((3-bromobenzyl)oxy)-3,4-dihydronaphthalen-1(2H)-ylidene)hydrazine-1-carboximidamide]	2 µg/mL (≈ 5.16 µM)	8 µg/mL (≈ 20.7 µM)	2 µg/mL (≈ 5.16 µM)	16 µg/mL (≈ 41.3 µM)	8 µg/mL (≈ 20.7 µM)	4 µg/mL (≈ 10.3 µM)	4 µg/mL (≈ 10.3 µM)	> 32 µg/mL	8 µg/mL (≈ 20.7 µM)	2 µg/mL (≈ 5.16 µM)	2 µg/mL (≈ 5.16 µM)	4 µg/mL (≈ 10.3 µM)	2 µg/mL (≈ 5.16 µM)	4 µg/mL (≈ 10.3 µM)	2 µg/mL (≈ 5.16 µM)	4 µg/mL (≈ 10.3 µM)	2 µg/mL (≈ 5.16 µM)	8 µg/mL (≈ 20.7 µM)	2 µg/mL (≈ 5.16 µM)	16 µg/mL (≈ 41.3 µM)	MBC [3]: 8 µg/mL (≈ 20.7 µM); MBC [6]: 8 µg/mL (≈ 20.7 µM); MBC [7]: 16 µg/mL (≈ 41.3 µM)
[H]/N=C(\N)NN=C1CCCc2cc(OCc3ccc(F)cc3Cl)ccc21 [Compound 1T, (E)-2-(6-((2-chloro-4-fluorobenzyl)oxy)-3,4-dihydronaphthalen-1(2H)-ylidene)hydrazine-1-carboximidamide]	2 µg/mL (≈ 5.54 µM)	16 µg/mL (≈ 44.3 µM)	2 µg/mL (≈ 5.54 µM)	32 µg/mL (≈ 88.7 µM)	> 32 µg/mL	16 µg/mL (≈ 44.3 µM)	32 µg/mL (≈ 88.7 µM)	> 32 µg/mL	8 µg/mL (≈ 22.2 µM)	1 µg/mL (≈ 2.77 µM)	2 µg/mL (≈ 5.54 µM)	8 µg/mL (≈ 22.2 µM)	1 µg/mL (≈ 2.77 µM)	4 µg/mL (≈ 11.1 µM)	1 µg/mL (≈ 2.77 µM)	4 µg/mL (≈ 11.1 µM)	1 µg/mL (≈ 2.77 µM)	4 µg/mL (≈ 11.1 µM)	4 µg/mL (≈ 11.1 µM)	4 µg/mL (≈ 11.1 µM)	MBC [6]: > 32 µg/mL; MBC [7]: 8 µg/mL (≈ 22.2 µM)
[H]/N=C(\N)NN=C1CCCc2cc(OCc3ccc(C#N)cc3)ccc21 [Compound 1V, (E)-2-(6-((4-cyanobenzyl)oxy)-3,4-dihydronaphthalen-1(2H)-ylidene)hydrazine-1-carboximidamide]	16 µg/mL (≈ 48 µM)	> 32 µg/mL	8 µg/mL (≈ 24 µM)	32 µg/mL (≈ 96 µM)	32 µg/mL (≈ 96 µM)	16 µg/mL (≈ 48 µM)	32 µg/mL (≈ 96 µM)	> 32 µg/mL	16 µg/mL (≈ 48 µM)	8 µg/mL (≈ 24 µM)	8 µg/mL (≈ 24 µM)	8 µg/mL (≈ 24 µM)	4 µg/mL (≈ 12 µM)	8 µg/mL (≈ 24 µM)	4 µg/mL (≈ 12 µM)	32 µg/mL (≈ 96 µM)	8 µg/mL (≈ 24 µM)	32 µg/mL (≈ 96 µM)	8 µg/mL (≈ 24 µM)	8 µg/mL (≈ 24 µM)	MBC [6]: 32 µg/mL (≈ 96 µM); MBC [7]: 16 µg/mL (≈ 48 µM)
